Data: patent publication US20260274892A1, “MACROCYCLIC BROAD SPECTRUM ANTIBIOTICS” (RQx Pharmaceuticals, Inc., priority 2017, published 2026)

Legend:
[1] = test system: Methicillin Resistant Staphylococcus aureus strain USA 200; experiment: Minimum inhibitory concentration (MIC), CLSI broth micro-dilution, S. aureus; type: cell-based; details: Staphylococcus aureus, MRSA / USA200; Table 6; MRSA USA 200; cation adjusted Mueller Hinton Broth + 0.002% Tween-80; 35° C., 22 hours
Summary of the method: (§1)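 Antibacterial potency is measured as MIC by the CLSI broth dilution method. Bacteria at OD600 0.0005 in Tween-80-supplemented cation-adjusted Mueller Hinton broth face ten twofold compound dilutions for 22 h at 35° C.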

[2] = test system: Escherichia coli ATCC 25922; experiment: Minimum inhibitory concentration (MIC), CLSI broth micro-dilution, E. coli; type: cell-based; details: Escherichia coli, ATCC25922, 22 h, Table 6, cation adjusted Mueller Hinton Broth + 0.002% Tween-80, 35° C.
Summary of the method: as §1

Row | Structure (SMILES) | MIC [1] [µM] | MIC [2] [µM]
1 | CCCCc1ccc(-c2nc(C)c(C(=O)N[C@@H](CCN)C(=O)N(C)[C@@H]3C(=O)N[C@@H](C)C(=O)N[C@H](C(=O)NCC#N)Cc4ccc(OCCN)c(c4)-c4cc3ccc4OCCN)c(C)n2)cc1 (racemic) [Compound 255, rac-(8S,11S,14S)-3,18-bis(2-aminoethoxy)-N-(cyanomethyl)-11-methyl-14-[methyl-[rac-(2S)-4-amino-2-[[2-(4-butylphenyl)-4,6-dimethyl-pyrimidine-5-carbonyl]amino]butanoyl]amino]-10,13-dioxo-9,12-diazatricyclo[13.3.1.12,6]icosa-1(18),2(20),3,5,15(19),16-hexaene-8-carboxamide] | 0.0082 | 0.066
2 | C[C@@H]1NC(=O)[C@@H](N(C)C(=O)[C@H](CCN)NC(=O)c2cc(N)c(-c3ccc(C(C)(C)C)cc3)nc2N)c2ccc(OCCN)c(c2)-c2cc(ccc2OCCN)C[C@@H](C(=O)NCC#N)NC1=O (racemic) [Compound 416, rac-(8S,11S,14S)-3,18-bis(2-aminoethoxy)-N-(cyanomethyl)-11-methyl-14-[methyl-[rac-(2S)-4-amino-2-[[2,5-diamino-6-(4-tert-butylphenyl)pyridine-3-carbonyl]amino]butanoyl]amino]-10,13-dioxo-9,12-diazatricyclo[13.3.1.12,6]icosa-1(18),2(20),3,5,15(19),16-hexaene-8-carboxamide] | 0.094 | 3
3 | Cc1nc(-c2ccc(C(C)(C)C)cc2)nnc1C(=O)N[C@@H](CCN)C(=O)N(C)[C@@H]1C(=O)N[C@@H](C)C(=O)N[C@H](C(=O)NCC#N)Cc2ccc(OCCN)c(c2)-c2cc1ccc2OCCN (racemic) [Compound 385, rac-(8S,11S,14S)-3,18-bis(2-aminoethoxy)-N-(cyanomethyl)-11-methyl-14-[methyl-[rac-(2S)-4-amino-2-[[3-(4-tert-butylphenyl)-5-methyl-1,2,4-triazine-6-carbonyl]amino]butanoyl]amino]-10,13-dioxo-9,12-diazatricyclo[13.3.1.12,6]icosa-1(18),2(20),3,5,15(19),16-hexaene-8-carboxamide] | 0.017 | 0.27
4 | Cc1nc(-c2ccc(C(C)(C)C)cc2)nc(C)c1C(=O)N[C@@H](CO)C(=O)N[C@@H](CCN)C(=O)N(C)[C@@H]1C(=O)N[C@@H](C)C(=O)N[C@H](C(=O)NCC#N)Cc2ccc(OCCN)c(c2)-c2cc1ccc2OCCN (racemic) [Compound 465, rac-(8S,11S,14S)-3,18-bis(2-aminoethoxy)-N-(cyanomethyl)-11-methyl-14-[methyl-[rac-(2S)-4-amino-2-[[rac-(2S)-2-[[2-(4-tert-butylphenyl)-4,6-dimethyl-pyrimidine-5-carbonyl]amino]-3-hydroxy-propanoyl]amino]butanoyl]amino]-10,13-dioxo-9,12-diazatricyclo[13.3.1.12,6]icosa-1(18),2(20),3,5,15(19),16-hexaene-8-carboxamide] | 0.047 | 4
5 | CCC1(c2ccc(-c3nc(C)c(C(=O)N[C@@H](CCN)C(=O)N(C)[C@@H]4C(=O)N[C@@H](C)C(=O)N[C@H](C(=O)NCC#N)Cc5ccc(OCCN)c(c5)-c5cc4ccc5OCCN)c(C)n3)cc2)CC1 (racemic) [Compound 281, rac-(8S,11S,14S)-3,18-bis(2-aminoethoxy)-N-(cyanomethyl)-11-methyl-14-[methyl-[rac-(2S)-4-amino-2-[[2-[4-(1-ethylcyclopropyl)phenyl]-4,6-dimethyl-pyrimidine-5-carbonyl]amino]butanoyl]amino]-10,13-dioxo-9,12-diazatricyclo[13.3.1.12,6]icosa-1(18),2(20),3,5,15(19),16-hexaene-8-carboxamide] | 0.016 | 0.065
6 | C[C@@H]1NC(=O)[C@@H](N(C)C(=O)[C@H](CCN)NC(=O)c2ccn(-c3ccc(C(C)(C)C)cc3)c(=O)c2)c2ccc(OCCN)c(c2)-c2cc(ccc2OCCN)C[C@@H](C(=O)NCC#N)NC1=O (racemic) [Compound 383, rac-(8S,11S,14S)-3,18-bis(2-aminoethoxy)-N-(cyanomethyl)-11-methyl-14-[methyl-[rac-(2S)-4-amino-2-[[1-(4-tert-butylphenyl)-2-oxo-pyridine-4-carbonyl]amino]butanoyl]amino]-10,13-dioxo-9,12-diazatricyclo[13.3.1.12,6]icosa-1(18),2(20),3,5,15(19),16-hexaene-8-carboxamide] | 0.1 | 1.1
7 | Cc1cc(-c2ccc3c(c2)CCC3(C)C)nc(C)c1C(=O)N[C@@H](CCN)C(=O)N(C)[C@@H]1C(=O)N[C@@H](C)C(=O)N[C@H](C(=O)NCC#N)Cc2ccc(OCCN)c(c2)-c2cc1ccc2OCCN (racemic) [Compound 361, rac-(8S,11S,14S)-3,18-bis(2-aminoethoxy)-N-(cyanomethyl)-11-methyl-14-[methyl-[rac-(2S)-4-amino-2-[[6-(1,1-dimethylindan-5-yl)-2,4-dimethyl-pyridine-3-carbonyl]amino]butanoyl]amino]-10,13-dioxo-9,12-diazatricyclo[13.3.1.12,6]icosa-1(18),2(20),3,5,15(19),16-hexaene-8-carboxamide] | 0.016 | 0.13
8 | Cc1nc(-c2ccc(OC3CCCCC3)cc2)nc(C)c1C(=O)N[C@@H](CCNS(N)(=O)=O)C(=O)N(C)[C@@H]1C(=O)N[C@@H](C)C(=O)N[C@H](C(=O)NCC#N)Cc2ccc(OCCN)c(c2)-c2cc1ccc2OCCN [Compound 500, (8S,11S,14S)-3,18-bis(2-aminoethoxy)-N-(cyanomethyl)-14-[[(2S)-2-[[2-[4-(cyclohexoxy)phenyl]-4,6-dimethyl-pyrimidine-5-carbonyl]amino]-4-(sulfamoylamino)butanoyl]-methyl-amino]-11-methyl-10,13-dioxo-9,12-diazatricyclo[13.3.1.12,6]icosa-1(18),2(20),3,5,15(19),16-hexaene-8-carboxamide] | 0.031 | 0.48
9 | CCCCC1(c2ccc(-c3nc(C)c(C(=O)N[C@@H](CCN)C(=O)N(C)[C@@H]4C(=O)N[C@@H](C)C(=O)N[C@H](C(=O)NCC#N)Cc5ccc(OCCN)c(c5)-c5cc4ccc5OCCN)c(C)n3)cc2)CC1 (racemic) [Compound 283, rac-(8S,11S,14S)-3,18-bis(2-aminoethoxy)-N-(cyanomethyl)-11-methyl-14-[methyl-[rac-(2S)-4-amino-2-[[2-[4-(1-butylcyclopropyl)phenyl]-4,6-dimethyl-pyrimidine-5-carbonyl]amino]butanoyl]amino]-10,13-dioxo-9,12-diazatricyclo[13.3.1.12,6]icosa-1(18),2(20),3,5,15(19),16-hexaene-8-carboxamide] | 0.012 | 0.094
10 | Cc1nc(-c2ccc3c(c2)CCC32CC2)nc(C)c1C(=O)N[C@@H](CCN)C(=O)N(C)[C@@H]1C(=O)N[C@@H](C)C(=O)N[C@H](C(=O)NCC#N)Cc2ccc(OCCN)c(c2)-c2cc1ccc2OCCN (racemic) [Compound 284, rac-(8S,11S,14S)-3,18-bis(2-aminoethoxy)-N-(cyanomethyl)-11-methyl-14-[methyl-[rac-(2S)-4-amino-2-[(4,6-dimethyl-2-spiro[cyclopropane-1,1′-indane]-5′-yl-pyrimidine-5-carbonyl)amino]butanoyl]amino]-10,13-dioxo-9,12-diazatricyclo[13.3.1.12,6]icosa-1(18),2(20),3,5,15(19),16-hexaene-8-carboxamide] | 0.016 | 0.13
